# According to patent US10329289B2, “6,7-dihydro-5H-pyrrolo[3,4-B]pyridin-5-one allosteric modulators of the M4 muscarinic acetylcholine receptor” (Merck Sharp & Dohme Corp., priority 2015, dated 2019):
# Molecular target: T1, human M4 muscarinic acetylcholine receptor (Homo sapiens, UniProt P08173)
# T1 construct: expressed in transfected cells; host or cells: CHO-K1
# T1 sequence (P08173 1-479): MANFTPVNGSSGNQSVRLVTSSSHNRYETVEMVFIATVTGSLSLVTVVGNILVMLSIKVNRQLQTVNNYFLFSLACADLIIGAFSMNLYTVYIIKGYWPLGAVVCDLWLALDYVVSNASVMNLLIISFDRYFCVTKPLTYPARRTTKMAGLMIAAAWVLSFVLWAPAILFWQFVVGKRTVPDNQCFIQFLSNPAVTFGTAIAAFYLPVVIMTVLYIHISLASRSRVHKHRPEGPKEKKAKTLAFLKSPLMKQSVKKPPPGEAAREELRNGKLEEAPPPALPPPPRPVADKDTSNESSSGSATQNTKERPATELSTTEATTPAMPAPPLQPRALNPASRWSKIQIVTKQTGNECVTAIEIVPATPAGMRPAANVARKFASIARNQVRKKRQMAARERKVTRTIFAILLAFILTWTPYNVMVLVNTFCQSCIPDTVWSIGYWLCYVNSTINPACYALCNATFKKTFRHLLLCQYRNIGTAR
# Experiment: human FLIPR-based M4 PAM assay (Ca2+ mobilization, CHO-K1 cells with human M4 receptor and Gαqi5)
# Format: cell-based
# Conditions: acetylcholine at 20% of maximum response, read-out: M4 PAM IP
# Procedure, shortened: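 CHO-K1 cells stably expressing human M4 and chimeric Gαqi5 were dye-loaded ~1 h at 37 °C and read for Ca2+ fluorescence. Compound followed by acetylcholine at an EC20 (sometimes an EC70 third addition); inflection point from a 4-parameter logistic fit.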
row,Compound,EC50
1,"Cc1c(N2CCC(Oc3ccc4c(c3)OCC4)CC2)nc2c(c1C)C(=O)NC2 [Example 333, 2-(4-((2,3-dihydrobenzofuran-6-yl)oxy)piperidin-1-yl)-3,4-dimethyl-6,7-dihydro-5H-pyrrolo[3,4-b]pyridin-5-one]",37 nM
2,"Cc1nc2cc(OC3CCN(c4nc5c(cc4C)C(=O)NC5)CC3)ccc2o1 [Example 123, 3-methyl-2-(4-((2-methylbenzo[d]oxazol-5-yl)oxy)piperidin-1-yl)-6,7-dihydro-5H-pyrrolo[3,4-b]pyridin-5-one]",144 nM
3,"Cc1cc2c(nc1N1CCC(OCC3CC3(C)C)CC1)CNC2=O (stereo not drawn) [Example 311, 2-(4-((2,2-Dimethylcyclopropyl)methoxy)piperidin-1-yl)-3-methyl-6,7-dihydro-5H-pyrrolo[3,4-b]pyridin-5-one]",686 nM
4,"COCCOCc1ccc(OC2CCN(c3nc4c(cc3C)C(=O)NC4)CC2)cn1 [Example 204, 2-(4-((6-((2-methoxyethoxy)methyl)pyridin-3-yl)oxy)piperidin-1-yl)-3-methyl-6,7-dihydro-5H-pyrrolo[3,4-b]pyridin-5-one]",1110 nM
5,"COc1ccc(OC2CCN(c3nc4c(cc3C)C(=O)N(C)C4C(C)(C)O)CC2)cn1 (stereo not drawn) [Example 322, 7-(2-Hydroxypropan-2-yl)-2-(4-((6-methoxypyridin-3-yl)oxy)piperidin-1-yl)-3,6-dimethyl-6,7-dihydro-5H-pyrrolo[3,4-b]pyridin-5-one]",499 nM
6,"Cc1cc2c(nc1N1CCC(Oc3ccc(O[C@H](C)CO)nc3)CC1)CNC2=O (single isomer, unassigned) [Example 141A]",82 nM
7,"Cc1cc2c(nc1N1CCC(Oc3cccc(C#N)c3)CC1)[C@@H](C)N(C)C2=O [Example 28A, (R)-3-((1-(3,6,7-trimethyl-5-oxo-6,7-dihydro-5H-pyrrolo[3,4-b]pyridin-2-yl)piperidin-4-yl)oxy)benzonitrile]",84 nM
8,"COc1ccc(O[C@H]2CCN(c3nc4c(cc3C)C(=O)NC4)C[C@H]2C)cn1 [Example 29B, 2-((3R,4S)-4-((6-methoxypyridin-3-yl)oxy)-3-methylpiperidin-1-yl)-3-methyl-6,7-dihydro-5H-pyrrolo[3,4-b]pyridin-5-one]",30000 nM
9,"Cc1cc2c(nc1N1CCC(Oc3ccc4c(c3)OCC4)CC1)[C@@H](CO)N(C)C2=O [Example 355, (S)-2-(4-((2,3-dihydrobenzofuran-6-yl)oxy)piperidin-1-yl)-7-(hydroxymethyl)-3,6-dimethyl-6,7-dihydro-5H-pyrrolo[3,4-b]pyridin-5-one]",16 nM
10,"Cc1cc2c(nc1N1CCC(Oc3ccc4c(c3)CC[C@@H]4CCO)CC1)CNC2=O [Example 157A, (R)-2-(4-((1-(2-hydroxyethyl)-2,3-dihydro-1H-inden-5-yl)oxy)piperidin-1-yl)-3-methyl-6,7-dihydro-5H-pyrrolo[3,4-b]pyridin-5-one]",93 nM
11,"Cc1cc2c(nc1N1CC[C@@H](Oc3ccc4c(c3)COC4)[C@@H](F)C1)CN(C)C2=O [Example 46, 2-((3S,4R)-4-((1,3-dihydro-2-benzofuran-5-yl)oxy)-3-fluoropiperidin-1-yl)-3,6-dimethyl-6,7-dihydro-5H-pyrrolo[3,4-b]pyridin-5-one]",32 nM
12,"Cc1c(N2CCC(Oc3ccc4c(c3)COCC4)CC2)nc2c(c1C)C(=O)N(C)[C@@H]2CO (single isomer, unassigned) [Example 337C]",42 nM
13,"COCc1ccc(OC2CCN(c3nc4c(cc3C)C(=O)NC4)CC2)cn1 [Example 203, 2-(4-((6-(methoxymethyl)pyridin-3-yl)oxy)piperidin-1-yl)-3-methyl-6,7-dihydro-5H-pyrrolo[3,4-b]pyridin-5-one]",531 nM
14,"COc1ccc(OC2CCN(c3nc4c(c(C(F)F)c3C)C(=O)NC4)CC2)cn1 [Example 307A, 4-(difluoromethyl)-2-(4-((6-methoxypyridin-3-yl)oxy)piperidin-1-yl)-3-methyl-6,7-dihydro-5H-pyrrolo[3,4-b]pyridin-5-one]",279 nM
15,"Cc1cc2c(nc1N1CCC(OCC34CC(C3)C4)CC1)CNC2=O [Example 187, 2-(4-(bicyclo[1.1.1]pentan-1-ylmethoxy)piperidin-1-yl)-3-methyl-6,7-dihydro-5H-pyrrolo[3,4-b]pyridin-5-one]",223 nM
16,"Cc1cc2c(nc1N1CCC(Oc3ccc4c(c3)CN(C)C4)CC1)CNC2=O [Example 290, 3-Methyl-2-(4-((2-methylisoindolin-5-yl)oxy)piperidin-1-yl)-6,7-dihydro-5H-pyrrolo[3,4-b]pyridin-5-one]",353 nM
17,"Cc1cc2c(nc1N1CCC(Oc3ccc(O[C@H](C)CO)nc3)CC1)CNC2=O [Example 143B, (R)-2-(4-((6-((1-hydroxypropan-2-yl)oxy)pyridin-3-yl)oxy)piperidin-1-yl)-3-methyl-6,7-dihydro-5H-pyrrolo[3,4-b]pyridin-5-one]",117 nM

row,Compound,EC50
1,"Cc1cc2c(nc1N1CC[C@@H](Oc3ccc4[nH]ncc4c3)[C@@H](F)C1)CNC2=O [Example 8, 2-((3S,4R)-4-((1H-indazol-5-yl)oxy)-3-fluoropiperidin-1-yl)-3-methyl-6,7-dihydro-5H-pyrrolo[3,4-b]pyridin-5-one]",14 nM
2,"Cc1cc2c(nc1N1CCC(Oc3ccnc(C#N)c3)CC1)CNC2=O [Example 93, 4-((1-(3-methyl-5-oxo-6,7-dihydro-5H-pyrrolo[3,4-b]pyridin-2-yl)piperidin-4-yl)oxy)picolinonitrile]",944 nM
3,"COc1ccc(O[C@@H]2CCN(c3nc4c(cc3C)C(=O)N(C)[C@H]4CO)C[C@H]2F)cn1 [Example 281A, (R)-2-((3R,4R)-3-fluoro-4-((6-methoxypyridin-3-yl)oxy)piperidin-1-yl)-7-(hydroxymethyl)-3,6-dimethyl-6,7-dihydro-5H-pyrrolo[3,4-b]pyridin-5-one]",8060 nM
4,"Cc1cc2c(nc1N1CCC(OCc3cccnc3)CC1)CNC2=O [Example 161, 3-Methyl-2-(4-(pyridin-3-ylmethoxy)piperidin-1-yl)-6,7-dihydro-5H-pyrrolo[3,4-b]pyridin-5-one]",1520 nM
5,"COc1ccc(OC2CCN(c3nc4c(cc3C)C(=O)N(C3CC3)C4)CC2)cn1 [Example 269, 6-Cyclopropyl-2-(4-((6-methoxypyridin-3-yl)oxy)piperidin-1-yl)-3-methyl-6,7-dihydro-5H-pyrrolo[3,4-b]pyridin-5-one]",65 nM
6,"Cc1cc2c(nc1N1CCC(Oc3ccc4c(c3)CO[C@@H]4C)CC1)CNC2=O [Example 199A, (R)-3-methyl-2-(4-((1-methyl-1,3-dihydro-2-benzofuran-5-yl)oxy)piperidin-1-yl)-6,7-dihydro-5H-pyrrolo[3,4-b]pyridin-5-one]",60 nM
7,"CCc1cc2c(nc1N1CCC(OCC3(C)CC3)CC1)CN(CCO)C2=O [Example 268, 3-ethyl-6-(2-hydroxyethyl)-2-(4-((1-methylcyclopropyl)methoxy)piperidin-1-yl)-6,7-dihydro-5H-pyrrolo[3,4-b]pyridin-5-one]",87 nM
8,"Cc1c(N2CCC(Oc3ccc4c(c3)C[C@H](O)C4)CC2)nc2c(c1C)C(=O)N(CCO)C2 [Example 264D, (R)-2-(4-((2-hydroxy-2,3-dihydro-1H-inden-5-yl)oxy)piperidin-1-yl)-6-(2-hydroxyethyl)-3,4-dimethyl-6,7-dihydro-5H-pyrrolo[3,4-b]pyridin-5-one]",79 nM
9,"Cc1cc2c(nc1N1CCC(Oc3cnc4c(c3)CCC4)CC1)CNC2=O [Example 59, 2-(4-((6,7-dihydro-5H-cyclopenta[b]pyridin-3-yl)oxy)piperidin-1-yl)-3-methyl-6,7-dihydro-5H-pyrrolo[3,4-b]pyridin-5-one]",123 nM
10,"COc1ccc(OC2CCN(c3nc4c(cc3C(F)F)C(=O)NC4)CC2)cn1 [Example 307, 3-(Difluoromethyl)-2-(4-((6-methoxypyridin-3-yl)oxy)piperidin-1-yl)-6,7-dihydro-5H-pyrrolo[3,4-b]pyridin-5-one]",1310 nM
11,"COc1ccc(OC2CCN(c3nc4c(cc3C)C(=O)N(C)[C@@]4(C)CO)CC2)cn1 (single isomer, unassigned) [Example 287A]",3870 nM
12,"CCOc1ccc(OC2CCN(c3nc4c(cc3C)C(=O)N[C@@H]4CCO)CC2)cn1 (single isomer, unassigned) [Example 234B]",78 nM
13,"Cc1cc2c(nc1N1CC[C@H](Oc3cccnc3)[C@H](F)C1)CNC2=O (single isomer, unassigned) [Example 165, 2-((3R,4S) or (3S,4R)-3-fluoro-4-(pyridin-3-yloxy)piperidin-1-yl)-3-methyl-6,7-dihydro-5H-pyrrolo[3,4-b]pyridin-5-one]",467 nM
14,"Cc1cc2c(nc1N1CCC(OCC3(C)CCC3)CC1)CNC2=O [Example 184, 3-methyl-2-(4-((1-methylcyclobutyl)meth-oxy)piperidin-1-yl)-6,7-dihydro-5H-pyrrolo[3,4-b]pyridin-5-one]",246 nM
15,"COc1ccc(OC2CCN(c3nc4c(cc3C)C(=O)N(Cc3ccncc3)C4)CC2)cn1 [Example 259, 2-(4-((6-methoxypyridin-3-yl)oxy)piperidin-1-yl)-3-methyl-6-(pyridin-4-ylmethyl)-6,7-dihydro-5H-pyrrolo[3,4-b]pyridin-5-one]",87 nM
16,"Cc1ccccc1OC1CCN(c2nc3c(cc2C)C(=O)NC3)CC1 [Example 79, 3-methyl-2-(4-(o-tolyloxy)piperidin-1-yl)-6,7-dihydro-5H-pyrrolo[3,4-b]pyridin-5-one]",2280 nM
